In patent US20140314857A1, “FORMULATIONS FOR ENHANCED BIOAVAILABILITY OF ZANAMIVIR” (priority 2012, published 2014) one finds solubility data, which are given here for one compound.

As usually defined, the solubility is how much of the substance goes into solution per volume. The low end stands for little dissolved substance, the high end for much dissolved substance.

The data set is described as follows: Express IV formulation development: solubility screening in normal saline. Type of data set: physicochemical. Conditions: saline or isotonic, thermodynamic from solid, NS, visual observation after vortexing. On the procedure: The following procedure and potential dosing vehicles were evaluated, and the results are described. The target concentrations of 5 mg/mL were investigated. 1. Weigh 2-5 mg of the zanamivir into a 4 mL glass vial. 2. Add the appropriate volume of normal saline. 3. Vortex, record observations of the formulation. 4. Take an aliquot and dilute it 5-fold with NS. 5. Record observations of the formulation. 6. End of the procedure.

As for `CC(=O)NC1C(NC(=N)N)C=C(C(=O)O)OC1C(O)C(O)CO` (stereo not shown) [Zanamivir, 5-acetamido-4-guanidino-6-(1,2,3-trihydroxypropyl)-5,6-dihydro-4H-pyran-2-carboxylic acid], the solubility is at least 5000 µg/mL.
